Measured values taken from patent EP1137645B1, “ALPHA-METHYLBENZYL-CONTAINING THIOUREA INHIBITORS OF HERPES VIRUSES CONTAINING A […] GROUP” (Wyeth, priority 1998, dated 2000).
Converted amounts (≈) assume the structure as drawn. Read-outs that look alike come from different tables or passages of the source.

Columns and labels:
[1] = test system: HCMV recombinant mutant virus whose genome contains the prokaryotic beta-glucuronidase gene; assay: microbe, parasite or virus in culture; format: cell-based, human cytomegalovirus; settings: Human betaherpesvirus 5, Fibroblast
Text: Microtiter plate assay. Ninety-six well plate cultures of human foreskin fibroblasts are infected in the presence of inhibitor compound with a HCMV recombinant mutant virus whose genome contains the prokaryotic beta-glucuronidase gene (Jefferson, R. A., S. M. Burgess, and D. Hirsh. 1986. Beta-glucuronidase from Escherichia coli as a gene fusion marker. Proc. Natl. Acad. Sci. USA 83:8447-8451) whose expression is controlled by a viral promoter. An example of such a virus is RV145 (Jones, T. R., V. P. Muzithras, and Y. Gluzman. 1991. Replacement mutagenesis of the human cytomegalovirus genome: US10 and US11 gene products are nonessential. J. Virol. 65:5860-5872). Since it is under the control of a viral promoter, beta-glucuronidase expression is an indirect indicator of growth and replication of HCMV in this assay. At 96 hours post-infection, the infected cell lysates are prepared (using 50mM sodium phosphate [pH7.0] containing 0.1% Triton X-100 and 0.1% sarkosyl) and assayed for beta-glucuronidase activity using a substrate for the enzyme which when cleaved yields either a product which can be measured colorimetrically in a spectrophotometer or fluorescently in a microfluorimeter. Examples of such substrates are p-nitrophenyl-beta-D-glucuronide and methylumbelliferylglucuronide, respectively. The presence of an antiviral compound is indicated by the reduced expression of the HCMV genome resident beta-glucuronidase gene, compared to the absence of inhibitor. […] Data from this assay generated using varying amounts of inhibitor compound is also used to estimate the IC50 of an inhibitor compound.

HSV- I = assay: HSV antiviral (ELISA) assay; format: cell-based; settings: read-out: IC50 (ug/ml) HSV
Procedure: Vero cells (ATCC #CCL-81) are plated on 96-well tissue culture plates at 3.5x10^4 cells per 100µl tissue culture DMEM (Dulbecco's modified Eagle media) supplemented with 2% fetal bovine serum (FBS) in each well. After overnight incubation @ 37°C (in 5% CO2) and 30 minutes prior to infection with HSV- I (multiplicity of infection equal to 0.006), cells are either untreated, or treated with test compound (multiple concentrations) or reference standard drug control. After approximately 24 hours post-infection incubation @ 37°C (in 5% CO2), cells are fixed for ELISA assay. The primary antibody is murine anti-HSV glycoprotein D monoclonal primary antibody and the secondary antibody is goat anti-mouse IgG linked to β-galactosidase. Thus the extent of viral replication is determined by assessing β-galactosidase activity by quantifying the generation of the 4-methyl umbelliferone fluorescent cleavage product after addition of the methyl umbelliferyl-β-D-galactoside (Sigma #M1633) substrate on a microfluorimeter (365nm for excitation and 450nm for emission). Antiviral activity (IC50) of the test compound is determined by comparing the flourescence obtained in absence of compound to that obtained in the presence of compound.

VZV strain Ellen = assay: VZV antiviral (ELISA) assay; format: cell-based
Procedure: For the generation of stock VZV to be used in the assay, VZV strain Ellen (ATCC #VR-1367) is used to infect human foreskin fibroblast (HFF) cells at low multiplicity (less than 0.1) and incubated overnight at 37°C in 5% CO2. After the overnight incubation, the mixture of uninfected and VZV-infected HFF infected cells are then harvested and added to each well of 96-well plates (3.5x10^4 cells in 100 µl DMEM supplemented with 2% FBS) which contain test compound or the reference standard drug control (in 100µl DMEM supplemented with 2% FBS per well). These cells are incubated for three days at 37°C in 5% CO2, then fixed for ELISA assay. The primary antibody is murine anti-VZV glycoprotein II monoclonal antibody (Applied Biosystems, Inc. #13-145-100) and the secondary antibody is goat anti-mouse IgG linked to β-galactosidase. Thus the extent of viral replication is determined by assessing β-galactosidase activity by quantifying the generation of the 4-methyl umbelliferone fluorescent cleavage product after addition of the methyl umbelliferyl-β-D-galactoside (Sigma #M1633) substrate on a microfluorimeter (365nm for excitation and 450nm for emission). Antiviral activity (IC50) of the test compound is determined by comparing the flourescence obtained in absence of compound to that obtained in the presence of compound.

[2] = read-out: IC50 ug/ml HCMV, HCMV, human foreskin fibroblasts
[3] = Human alphaherpesvirus 3, HFF, read-out: % inhibition 10 ug/ml VZV
[4] = Human alphaherpesvirus 3, HFF, read-out: IC50 (ug/ml) VZV
[5] = Human alphaherpesvirus 3, HFF, read-out: IC50 (ug/ml) VZV, VZV strain Ellen, HFF cells, ELISA
[6] = Human alphaherpesvirus 3, read-out: % inhibition 10 ug/ml VZV, 10 ug/ml, VZV strain Ellen, HFF cells, ELISA
[7] = Human alphaherpesvirus 3, VZV strain Ellen, HFF cells, ELISA, read-out: IC50 (ug/ml) VZV

| SMILES | IC50 [1, 2] [µg/mL] | IC50 (HSV- I; Vero) [µg/mL] | inhibition at 10 µg/mL (VZV strain Ellen; [3]) [%] | IC50 (VZV strain Ellen; [4]) [µg/mL] | IC50 (VZV strain Ellen; [5]) [µg/mL] | IC50 ([1]; read-out: IC50 ug/ml HCMV) [µg/mL] | IC50 (HSV- I; HSV- I, Vero cells, ELISA) [µg/mL] | inhibition at 10 µg/mL (VZV strain Ellen; [6]) [%] | IC50 (VZV strain Ellen; [7]) [µg/mL] |
| --- | --- | --- | --- | --- | --- | --- | --- | --- | --- |
| CC1CCCCN1CC(=O)Nc1ccc(NC(=S)Nc2ccc(NC(=O)c3ccccc3F)cc2)cc1Cl (centres unmarked) [Example 425, N-[4-(3-{3-Chloro-4-[2-(2-methyl-piperidin-1-yl)-acetylamino]-phenyl}-thioureido)-phenyl]-2-fluoro-benzamide] | 0.5 (≈ 0.902 µM) | 3 (≈ 5.41 µM) | 103 | > 7.5 |  |  |  |  |  |
| COc1cc(OC)c(NC(=S)Nc2ccc(NC(=O)c3ccccc3[S+](C)[O-])cc2)cc1Cl (centres unmarked) [Example 220, N-{4-[3-(5-Chloro-2,4-dimethoxy-phenyl)-thioureido]-phenyl}-2-methane-sulfinyl-benzamide] | > 10 | > 10 | 35 |  | > 10 |  |  |  |  |
| O=C(Nc1ccc(NC(=S)Nc2cccc(C(F)(F)F)c2)cc1)c1ccccc1F [Example 433, 2-Fluoro-N-{4-[3-(3-trifluoromethyl-phenyl)-thioureido]-phenyl}-benzamide] |  |  |  |  |  | > 10 | > 10 | 0 | > 10 |
| O=C(O)c1cccc(NC(=S)Nc2ccc(NC(=O)c3ccco3)cc2)c1 [Example 964, 3-(3-{4-[(Furan-2-carbonyl)-amino]-phenyl}-thioureido)-benzoic acid] |  |  |  |  |  | > 10 | > 10 | 0 | > 10 |
| CCCCSc1ccc(NC(=S)Nc2ccc(NC(=O)c3ccccc3F)cc2)cc1Cl [Example 387, N-{4-[3-(4-Butylsulfanyl-3-chloro-phenyl)-thioureido]-phenyl}-2-fluoro-benzamide] | > 10 |  | 26 | > 10 |  |  | > 10 |  |  |
| Cc1ccc(NC(=S)Nc2ccc(NC(=O)c3ccccc3F)cc2Cl)cc1Cl [Example 459, N-{3-Chloro-4-[3-(3-chloro-4-methyl-phenyl)-thioureido]-phenyl}-2-fluoro-benzamide] | > 10 |  | 25 | > 10 |  |  | 0.12 (≈ 0.268 µM) |  |  |
| O=C(Nc1ccc(NC(=S)NC(Cc2ccccc2)c2ccc(F)cc2)cc1)c1ccccc1F (centres unmarked) [Example 774, 2-Fluoro-N-(4-{3-[1-(4-fluoro-phenyl)-2-phenyl-ethyl]-thioureido}-phenyl)-benzamide] | 0.5 (≈ 1.03 µM) | > 10 |  |  | > 7.5 |  |  |  |  |
| COc1cc(OC)c(NC(=S)Nc2ccc(NC(=O)c3ccccc3F)cc2)cc1Cl [Example 118, N-{4-[3-(5-Chloro-2,4-dimethoxy-phenyl)-thioureido]-phenyl}-2-fluoro-benzamide] | 3 (≈ 6.52 µM) | 0.15 (≈ 0.326 µM) |  |  | > 10 |  |  |  |  |
| COC(=O)c1cccc(C(=O)Nc2ccc(NC(=S)Nc3cc(Cl)c(OC)cc3OC)cc2)c1 [Example 208, N-{4-[3-(5-Chloro-2,4-dimethoxy-phenyl)-thioureido]-phenyl}-isophthalamic acid methyl ester] | > 10 |  | 25 | > 10 |  |  | 10 (≈ 20 µM) |  |  |
| Cc1ccccc1C(C)NC(=S)Nc1ccc(NC(=O)c2ccccc2F)cc1 (centres unmarked) [Example 775, 2-Fluoro-N-{4-[3-(1-o-tolyl-ethyl)-thioureido]-phenyl}-benzamide] | 1 (≈ 2.45 µM) | > 10 |  |  | > 7.5 |  |  |  |  |
| CN(C)CCSCC(=O)Nc1ccc(NC(=S)Nc2ccc(NC(=O)c3ccccc3F)cc2)cc1Cl [Example 373, N-[4-(3-{3-Chloro-4-[2-(2-dimethylamino-ethylsulfanyl)-acetylamino]-phenyl}-thioureido)-phenyl]-2-fluoro-benzamide] | 6 (≈ 10.7 µM) |  | 4 | > 10 |  |  | 9 (≈ 16.1 µM) |  |  |
